The values below come from US20100285959A1, “HERBICIDAL MIXTURES” (priority 2006, published 2010).

Each structure is given as a SMILES string.

The test system of one data set is red deadnettle (LAMPU). Kind of data set: Test 9 field trial, emerged weeds before corn planting. Conditions: g a.i./ha: Cpd 2 100, Glyphosate 1540, Paraquat 1150. The format is in vivo, Lamium purpureum. On the procedure: (§1) Corn seeds (hybrid ‘Pioneer 34M91 RR’) were planted in mid spring season, about 3.8 cm deep in a silty clay loam soil having a pH of 6.7. Plots were 9.1 m long by 3.0 m. The field was managed using no-till practices. […] Compound 2 and paraquat treatments, alone and in combination, also included a surfactant. Glyphosate, alone and with Compound 2, included ammonium sulfate in the treatment mixture. […] The effects on the weeds in the treated plots and untreated control plots were recorded 7, 14, 23, 30 and 57 days after application. Most of the weed species could not be evaluated at every timing. Corn response was only evaluated 57 days after application. […] Results are the means of the three replicates.

The next data set deals with common blackjack (BIDPI). Kind of data set: Test 12 field trial, preemergence. Details: scale not given here. It counts as in vivo, Bidens pilosa. Conditions: Cpd 2 or Cpd 1 62 g a.i./ha, Diuron 2000 g a.i./ha. From the text: (§2) In early-mid spring season, corn seeds (hybrid ‘Pioneer 3041’) were planted 5 cm deep and sugarcane nodes (variety RB-72.454) were planted 10 cm deep in separate plots in a clay soil having 2.6% organic matter and a pH of 5.6. Plots were 24 m long by 1.5 m wide with rows spaced 80 cm (corn) or 140 cm (sugarcane) apart. Corn seeds were spaced 15 cm apart and sugarcane nodes were spaced 10 cm apart within the rows. At the same time, weed seeds were broadcast over the surface of separate plots without a crop, one weed species per plot. The weed plots were rotary tilled to incorporate the weed seeds to a variety of depths. The field was managed using conventional tillage practices.

A further data set concerns giant ragweed (AMBTR). Description: Test 9 field trial, emerged weeds before corn planting. The format is in vivo, Ambrosia trifida. Conditions: g a.i./ha: Cpd 2 100, Glyphosate 1540, Paraquat 1150. On the procedure:
as §1

A further data set relates to corn (ZEAMD). The description is as above. The format is in vivo, Zea mays ssp. indentata. Conditions: 57 DAA; g a.i./ha: Cpd 2 100, Glyphosate 1540, Paraquat 1150. Here is the method:
as §1

The subject of data set [1] is henbit deadnettle (LAMAM). The description is as above. It counts as in vivo, Lamium amplexicaule. Conditions: g a.i./ha: Cpd 2 100, Glyphosate 1540, Paraquat 1150. Here is the method: as §1
The next data set has as its system shepherd's purse (CAPBP). The description is as above. Conditions: g a.i./ha: Cpd 2 100, Glyphosate 1540, Paraquat 1150. It counts as in vivo, Capsella bursa-pastoris. On the procedure:
as §1

A further data set concerns yellow nutsedge (CYPES). Kind of data set: Test 14 field trial, preemergence, growth as percent of control. The format is in vivo, Cyperus esculentus. From the text:
Corn seeds (hybrid ‘Pioneer 31G96 RR’) were planted in mid spring season, 3.8 cm deep in a clay loam soil having 2% organic matter and a pH of 6.6. Plots were 6.1 m long by 3.0 m wide with rows spaced 76 cm apart. Seeds were spaced 15 cm apart within the rows. The field was managed using conventional tillage practices. […] Yellow nutsedge was only evaluated 19 and 28 days after application, and ivyleaf morningglory could only be evaluated 28 days after application. […] Results are the means of the three replicates. This growth inhibition data was converted to results in the form of “plant growth as a percent of control plant growth” using the calculation “100 minus growth inhibition”. […] For “growth as a percent of control” data, Colby's Equation calculates the expected additive effect of herbicidal mixtures having two active ingredients as follows:
Ga+b=GaGb/100 • wherein Ga+b is the growth as a percent of control of plants treated with the mixture expected from additive contribution of the individual components, • Ga is the observed growth as a percent of control of plants treated with the first active ingredient at the same use rate as in the mixture, and • Gb is the observed growth as a percent of control of plants treated with the second active ingredient at the same use rate as in the mixture. For mixtures having three active ingredients, Colby's Equation to calculate the expected additive effect of herbicidal mixtures is as follows:
Ga+b+c=GaGbGc/10,000 • wherein Ga and Gb are as defined above and • Ga+b+c is the growth as a percent of control of plants treated with the mixture expected from additive contribution of the individual components, and • Gc is the observed growth as a percent of control of plants treated with the third active ingredient at the same use rate as in the mixture. When these two forms of Colby's Equation are used, if the observed effects on weeds are less than the expected values, the mixture is synergistic.

In another data set the test system is kochia (KCHSC). Kind of data set: Test 23 growth chamber, postemergence. The format is in vivo, Kochia scoparia. Conditions: 21 DAA. On the procedure:
A test was conducted to evaluate the effects on winter barley (HORVW, Hordeum vulgare L.), winter wheat (TRZAW, Triticum aestivum L.), and several weed species of mixtures of Compound 2 with the commercial herbicides (2,4-dichlorophenoxy)acetic acid (2,4-D) and (4-chloro-2-methylphenoxy)acetic acid (MCPA), auxin mimics. […] Plants were treated postemergence at the 2-4 leaf growth stage, and each treatment was replicated three times. […] Plants were watered as needed. […] Results are means of the three replicates.

The subject of the next data set is galium (GALAP). Kind of data set: Test 21 growth chamber, postemergence. Conditions: 19 DAA. It counts as in vivo, Galium aparine. Here is the method: A test was conducted to evaluate the effects on winter barley (HORVW, Hordeum vulgare L.), winter wheat (TRZAW, Triticum aestivum L.), and several weed species, of mixtures of Compound 2 with the commercial herbicide (2,4-dichlorophenoxy)acetic acid (2,4-D), an auxin mimic. […] Plants were treated postemergence at the 2-4 leaf growth stage, and each treatment was replicated one time. […] Plants were watered as needed. […] Results are from single replicates.

In the next data set the test system is common purslane (POROL). Description: Test 12 field trial, preemergence. It counts as in vivo, Portulaca oleracea. Conditions: Cpd 2 or Cpd 1 62 g a.i./ha, Diuron 2000 g a.i./ha.
Source text: as §2

Take `COC(=O)c1nc(C2CC2)nc(N)c1Cl` [Compound 2, methyl 6-amino-5-chloro-2-cyclopropyl-4-pyrimidinecarboxylate]: the “LAMPU Obs” value in the data set on red deadnettle (LAMPU) (7 DAA) amounted to 45%; in the data set with red deadnettle (LAMPU) (14 DAA), 23%; in the data set on red deadnettle (LAMPU) (23 DAA) it was 58%; with red deadnettle (LAMPU) (30 DAA), 65%. The “BIDPI Obs” value with common blackjack (BIDPI) (15 DAA) is 60; with common blackjack (BIDPI) (29 DAA) it was 80; in the data set with common blackjack (BIDPI) (48 DAA) it was 80; in the data set on common blackjack (BIDPI) (61 DAA), 70. For the same compound, the results for the “AMBTR Obs” value with giant ragweed (AMBTR) (7 DAA), in the data set on giant ragweed (AMBTR) (14 DAA) and in the data set on giant ragweed (AMBTR) (57 DAA) were 85%, 83% and 89%, respectively. Moreover, the “ZEAMD Obs” value in the data set on corn (ZEAMD) was 0%. Besides, the “LAMAM Obs” value in data set [1] (7 DAA) is reported as 22%; in data set [1] (14 DAA) it was 27%; in data set [1] (23 DAA), 50%; in [1] (30 DAA), 65%; in data set [1] (57 DAA), 89%. The “CAPBP Obs” value amounted to 23% in the data set with shepherd's purse (CAPBP) (7 DAA); 17% with shepherd's purse (CAPBP) (14 DAA); 7% with shepherd's purse (CAPBP) (23 DAA); 0% with shepherd's purse (CAPBP) (30 DAA); 0% with shepherd's purse (CAPBP) (57 DAA). Moreover, the “Obs growth % of control” value with yellow nutsedge (CYPES) (19 DAA, 75 g a.i./ha) came to 85%; in the data set with yellow nutsedge (CYPES) (19 DAA, 100 g a.i./ha) it was 78%; with yellow nutsedge (CYPES) (28 DAA, 75 g a.i./ha), 85%; in the data set on yellow nutsedge (CYPES) (28 DAA, 100 g a.i./ha) it was 90%. Further, the figures for the “Postemergence KCHSC Obs” value in the data set on kochia (KCHSC) (Cpd 2 alone 4 g a.i./ha), in the data set with kochia (KCHSC) (Cpd 2 alone 8 g a.i./ha) and in the data set on kochia (KCHSC) (Cpd 2 alone 16 g a.i./ha) were 53, 60 and 70, respectively. Moreover, the “Postemergence GALAP Obs” value with galium (GALAP) (Cpd 2 alone 16 g a.i./ha) is on record as 90. In addition, the “POROL Obs” value in the data set on common purslane (POROL) (15 DAA) is given as 60; in the data set on common purslane (POROL) (29 DAA) it was 75; in the data set with common purslane (POROL) (48 DAA) it was 90; in the data set with common purslane (POROL) (61 DAA), 90.

As for `O=C(O)CNCP(=O)(O)O` [Glyphosate], the “LAMPU Obs” value in the data set with red deadnettle (LAMPU) (7 DAA) was found to be 55%; in the data set with red deadnettle (LAMPU) (14 DAA), 60%; in the data set on red deadnettle (LAMPU) (23 DAA), 77%; with red deadnettle (LAMPU) (30 DAA) it was 79%; in the data set with red deadnettle (LAMPU) (57 DAA), 95%. The “AMBTR Obs” value came to 25% in the data set with giant ragweed (AMBTR) (7 DAA), 77% in the data set with giant ragweed (AMBTR) (14 DAA) and 85% with giant ragweed (AMBTR) (57 DAA). Also, in the data set with corn (ZEAMD), the “ZEAMD Obs” value was 0%. For the same compound, the “LAMAM Obs” value was 25% in [1] (7 DAA); 37% in data set [1] (14 DAA); 79% in [1] (23 DAA); 95% in [1] (30 DAA); 66% in data set [1] (57 DAA). In addition, the “CAPBP Obs” value was 52% with shepherd's purse (CAPBP) (7 DAA); 73% in the data set on shepherd's purse (CAPBP) (14 DAA); 88% with shepherd's purse (CAPBP) (23 DAA); 98% in the data set with shepherd's purse (CAPBP) (30 DAA); 100% with shepherd's purse (CAPBP) (57 DAA).

As for `CCc1cccc(C)c1N(C(=O)CCl)[C@@H](C)COC` [S-Metolachlor, S-metolachlor, reference compound], the “Obs growth % of control” value in the data set with yellow nutsedge (CYPES) (28 DAA, 1870 g a.i./ha) is on record as 8%.

Take `O=C(O)COc1ccc(Cl)cc1Cl` [2,4-D, (2,4-dichlorophenoxy)acetic acid]: the “Postemergence KCHSC Obs” value in the data set on kochia (KCHSC) (2,4-D or MCPA alone 250 g a.i./ha) is recorded as 70. Further, the entries for the “Postemergence GALAP Obs” value with galium (GALAP) (2,4-D alone 125 g a.i./ha) and in the data set on galium (GALAP) (2,4-D alone 250 g a.i./ha) were 30 and 35, respectively.

For the compound `Nc1nc(C2CC2)nc(C(=O)O)c1Cl` [Compound 1, 6-amino-5-chloro-2-cyclopropyl-4-pyrimidinecarboxylic acid], the “BIDPI Obs” value in the data set on common blackjack (BIDPI) (15 DAA) is on record as 70; in the data set on common blackjack (BIDPI) (29 DAA), 80; in the data set with common blackjack (BIDPI) (48 DAA), 80; in the data set with common blackjack (BIDPI) (61 DAA), 60. Also, the “POROL Obs” value in the data set on common purslane (POROL) (15 DAA) worked out at 90; in the data set on common purslane (POROL) (29 DAA), 97; in the data set on common purslane (POROL) (48 DAA), 100; in the data set on common purslane (POROL) (61 DAA) it was 100.
